From ChEMBL document CHEMBL4765323, “Design, synthesis, and biological evaluation of novel miconazole analogues containing selenium as potent antifungal agents” (Eur J Med Chem, 2020)
Converted amounts (≈) assume the structure as drawn.

Key:
Erythrocyte = assay: Hemolytic activity in rabbit RBC assessed as hemolysis ratio at 1 ug/ml measured after 3 hrs relative to control; type: ADME, cell-based, Oryctolagus cuniculus; details: dose 1 µg/ml
Candida albicans [1] = assay: Antibiofilm activity against FCZ-Resistant Candida albicans CPCC400616 assessed as sessile minimum inhibitory concentration of biofilm formation at 50% after 3 hrs by XTT assay; type: functional
Candida albicans [2] = assay: Antibiofilm activity against FCZ-Resistant Candida albicans CPCC400616 assessed as sessile minimum inhibitory concentration of biofilm formation at 80% after 1.5 hrs by XTT assay; type: functional
Candida albicans [3] = assay: Antifungal activity against Candida albicans CPCC400616 measured after 24 hrs by micro-broth dilution assay; type: functional
Cryptococcus neoformans = assay: Antifungal activity against Cryptococcus neoformans CGMCC2.3161 measured after 72 hrs by micro-broth dilution assay; type: functional
Candida albicans [4] = assay: Antifungal activity against fluconazole-resistant Candida albicans 632 measured after 24 hrs by micro-broth dilution assay; type: functional
Candida albicans [5] = assay: Antibiofilm activity against FCZ-Resistant Candida albicans CPCC400616 assessed as sessile minimum inhibitory concentration of biofilm formation at 80% after 24 hrs by XTT assay; type: functional
Candida parapsilosis = assay: Antifungal activity against Candida parapsilosis ATCC 22019 measured after 24 hrs by micro-broth dilution assay; type: functional; details: Lodderomyces parapsilosis
Candida albicans [6] = assay: Antibiofilm activity against FCZ-Resistant Candida albicans CPCC400616 assessed as sessile minimum inhibitory concentration of biofilm formation at 50% after 1.5 hrs by XTT assay; type: functional
Candida albicans [7] = assay: Antibiofilm activity against FCZ-Resistant Candida albicans CPCC400616 assessed as sessile minimum inhibitory concentration of biofilm formation at 50% after 6 hrs by XTT assay; type: functional
Candida albicans [8] = assay: Antifungal activity against fluconazole-resistant Candida albicans strain 904 measured after 24 hrs by micro-broth dilution assay; type: functional
Candida albicans [9] = assay: Antifungal activity against fluconazole-resistant Candida albicans CaR measured after 24 hrs by micro-broth dilution assay; type: functional
[Candida] zeylanoides = Antifungal activity against Candida zeylanoides CMGCC2.3739 measured after 24 hrs by micro-broth dilution assay; type: functional; details: Dujonia zeylanoides
Nakaseomyces glabratus = assay: Antifungal activity against clinical isolate Candida glabrata measured after 24 hrs by micro-broth dilution assay; type: functional
Candida albicans [10] = assay: Antibiofilm activity against FCZ-Resistant Candida albicans CPCC400616 assessed as sessile minimum inhibitory concentration of biofilm formation at 80% after 3 hrs by XTT assay; type: functional
Candida albicans [11] = assay: Antibiofilm activity against FCZ-Resistant Candida albicans CPCC400616 assessed as sessile minimum inhibitory concentration of biofilm formation at 80% after 6 hrs by XTT assay; type: functional
Candida albicans [12] = assay: Antifungal activity against Candida albicans 901 measured after 24 hrs by micro-broth dilution assay; type: functional
[13] = Ratio of MFC for fungicidal activity against Candida albicans CPCC400616 to MIC for Antifungal activity against Candida albicans CPCC400616; type: functional; details: time 24 hrs
Candida albicans [14] = assay: Antifungal activity against fluconazole-resistant Candida albicans 17 measured after 24 hrs by micro-broth dilution assay; type: functional
Pichia kudriavzevii = assay: Antifungal activity against Candida krusei AS 2.1045 measured after 24 hrs by micro-broth dilution assay; type: functional
[15] = Ratio of hemolysis activity in rabbit RBC to MIC for Candida albicans; type: toxicity; details: rabbit red blood cells (RBC)
Aspergillus fumigatus = assay: Antifungal activity against Aspergillus fumigatus CGMCC 3.7795 measured after 72 hrs by micro-broth dilution assay; type: functional
Candida albicans [16] = assay: Antifungal activity against Candida albicans ATCC SC5314 measured after 24 hrs by micro-broth dilution assay; type: functional
Candida albicans [17] = assay: Antibiofilm activity against FCZ-Resistant Candida albicans CPCC400616 assessed as sessile minimum inhibitory concentration of biofilm formation at 50% after 24 hrs by XTT assay; type: functional
Candida albicans [18] = assay: Fungicidal activity against Candida albicans CPCC400616 measured after 48 hrs; type: functional

For `Fc1ccc(Br)c(C[Se]C(Cn2ccnc2)c2ccc(Cl)cc2Cl)c1` (stereo not given), the Activity (Erythrocyte) was 0.49 µg/mL, the Activity (Candida albicans [1]) was 8 µg/mL and the Activity (Candida albicans [2]) was 8 µg/mL. For the same compound, the MIC (Candida albicans [3]) was 0.02 µg/mL (≈ 0.0394 µM), the MIC (Cryptococcus neoformans) was 0.25 µg/mL (≈ 0.493 µM) and the MIC (Candida albicans [4]) was 0.13 µg/mL (≈ 0.256 µM). The Activity (Candida albicans [5]) was over 128 µg/mL, the MIC (Candida parapsilosis) was 0.02 µg/mL (≈ 0.0394 µM) and the Activity (Candida albicans [6]) was 1 µg/mL. For the same compound, the Activity (Candida albicans [7]) was 8 µg/mL, the MIC (Candida albicans [8]) was 0.13 µg/mL (≈ 0.256 µM) and the MIC (Candida albicans [9]) was 0.13 µg/mL (≈ 0.256 µM). The MIC ([Candida] zeylanoides) was 0.5 µg/mL (≈ 0.986 µM), the MIC (Nakaseomyces glabratus) was 0.5 µg/mL (≈ 0.986 µM) and the Activity (Candida albicans [10]) was 64 µg/mL. It also gave an Activity (Candida albicans [11]) of over 128 µg/mL, an MIC (Candida albicans [12]) of 0.25 µg/mL (≈ 0.493 µM) and an MFC/MIC ratio [13] of 4. For the same compound, the MIC (Candida albicans [14]) was 0.03 µg/mL (≈ 0.0592 µM), the MIC (Pichia kudriavzevii) was 0.13 µg/mL (≈ 0.256 µM) and the selectivity ratio [15] was 256. The MIC (Aspergillus fumigatus) was 0.5 µg/mL (≈ 0.986 µM), the MIC (Candida albicans [16]) was 0.01 µg/mL (≈ 0.0197 µM) and the Activity (Candida albicans [17]) was 128 µg/mL. The MIC (Candida albicans [18]) was 0.0625 µg/mL (≈ 0.123 µM).
